# Species: Rattus norvegicus
# Test: DrugMatrix - Regimen: Daily Repeat
# Format: toxicity, organism-based, Sprague-Dawley
# Set-up: regimen Daily Repeat, gender Male, age 6-8 weeks
# Settings: in vivo, po, route oral GAVAGE, vehicle 100 % SALINE; for ABSOLUTE BASOPHIL / ABSOLUTE EOSINOPHIL / ABSOLUTE LYMPHOCYTE / ABSOLUTE MONOCYTE / ABSOLUTE SEGMENTED NEUTROPHIL / BASOPHIL / EOSINOPHIL / ERYTHROCYTE COUNT / HEMATOCRIT / HEMOGLOBIN / LEUKOCYTE COUNT / LYMPHOCYTE / MEAN CORPUSCULAR HEMOGLOBIN / MEAN CORPUSCULAR HEMOGLOBIN CONCENTRATION / MEAN CORPUSCULAR VOLUME / MONOCYTE / NEUTROPHIL / NUCLEATED RED BLOOD CELLS / PLATELET COUNT: tissue Blood; for ALANINE AMINOTRANSFERASE / ALBUMIN / ALKALINE PHOSPHATASE / ASPARTATE AMINOTRANSFERASE / BLOOD UREA NITROGEN / CARBON DIOXIDE / CHLORIDE / CHOLESTEROL / CREATINE PHOSPHOKINASE / CREATININE / GLUCOSE / LACTATE DEHYDROGENASE / LIPASE / PHOSPHORUS / POTASSIUM / SODIUM / TOTAL BILIRUBIN / TOTAL PROTEIN / URIC ACID: tissue Plasma
# [1] = 0 mg/kg, 72 h, dose level Control, time 3 day
# [2] = 0 mg/kg, 120 h, dose level Control, time 5 day
# [3] = […], 72 h, dose 2.3 mg/Kg, dose level Low, time 3 day
# [4] = […], 120 h, dose 2.3 mg/Kg, dose level Low, time 5 day
structure (smiles),measurement,setting,value
CC(CN1c2ccccc2Sc2ccccc21)N(C)C (configuration not stated) [PROMETHAZINE],ABSOLUTE BASOPHIL,[1],0 CELLS/uL
same,ABSOLUTE EOSINOPHIL,[1],65.67 CELLS/uL
same,ABSOLUTE LYMPHOCYTE,[1],17283.5 CELLS/uL
same,ABSOLUTE MONOCYTE,[1],0 CELLS/uL
same,ABSOLUTE SEGMENTED NEUTROPHIL,[1],1284.17 CELLS/uL
same,BASOPHIL,[1],0%
same,EOSINOPHIL,[1],0.33%
same,ERYTHROCYTE COUNT,[1],5.46 x10E6/uL
same,HEMATOCRIT,[1],34.28%
same,HEMOGLOBIN,[1],13.78 G/DL
same,LEUKOCYTE COUNT,[1],18.63 x10E3/uL
same,LYMPHOCYTE,[1],92.67%
same,MEAN CORPUSCULAR HEMOGLOBIN,[1],25.3 pg
same,MEAN CORPUSCULAR HEMOGLOBIN CONCENTRATION,[1],40.22 G/DL
same,MEAN CORPUSCULAR VOLUME,[1],62.87 fL
same,MONOCYTE,[1],0%
same,NEUTROPHIL,[1],7%
same,NUCLEATED RED BLOOD CELLS,[1],0 /100WBC
same,PLATELET COUNT,[1],1244.83 x10E3/uL
same,ALANINE AMINOTRANSFERASE,[1],52.83 u/L
same,ALBUMIN,[1],4 G/DL
same,ALKALINE PHOSPHATASE,[1],327.67 u/L
same,ASPARTATE AMINOTRANSFERASE,[1],78.83 u/L
same,BLOOD UREA NITROGEN,[1],13.83 mg/dL
same,CARBON DIOXIDE,[1],26.67 mmol/L
same,CHLORIDE,[1],99.67 MEQ/L
same,CHOLESTEROL,[1],69 mg/dL
same,CREATINE PHOSPHOKINASE,[1],350.17 u/L
same,CREATININE,[1],0.21 mg/dL
same,GLUCOSE,[1],173.83 mg/dL
same,LACTATE DEHYDROGENASE,[1],168.33 u/L
same,LIPASE,[1],11 u/L
same,PHOSPHORUS,[1],12.7 mg/dL
same,POTASSIUM,[1],6.88 MEQ/L
same,SODIUM,[1],141.68 MEQ/L
same,TOTAL BILIRUBIN,[1],0.22 mg/dL
same,TOTAL PROTEIN,[1],6.02 G/DL
same,URIC ACID,[1],1.9 mg/dL
same,ABSOLUTE BASOPHIL,[2],0 CELLS/uL
same,ABSOLUTE EOSINOPHIL,[2],14.83 CELLS/uL
same,ABSOLUTE LYMPHOCYTE,[2],12880 CELLS/uL
same,ABSOLUTE MONOCYTE,[2],90.67 CELLS/uL
same,ABSOLUTE SEGMENTED NEUTROPHIL,[2],864.5 CELLS/uL
same,BASOPHIL,[2],0%
same,EOSINOPHIL,[2],0.17%
same,ERYTHROCYTE COUNT,[2],5.83 x10E6/uL
same,HEMATOCRIT,[2],35.87%
same,HEMOGLOBIN,[2],14 G/DL
same,LEUKOCYTE COUNT,[2],13.85 x10E3/uL
same,LYMPHOCYTE,[2],92.5%
same,MEAN CORPUSCULAR HEMOGLOBIN,[2],24.03 pg
same,MEAN CORPUSCULAR HEMOGLOBIN CONCENTRATION,[2],39.03 G/DL
same,MEAN CORPUSCULAR VOLUME,[2],61.53 fL
same,MONOCYTE,[2],0.67%
same,NEUTROPHIL,[2],6.67%
same,NUCLEATED RED BLOOD CELLS,[2],0 /100WBC
same,PLATELET COUNT,[2],1041.83 x10E3/uL
same,ALANINE AMINOTRANSFERASE,[2],56 u/L
same,ALBUMIN,[2],4.47 G/DL
same,ALKALINE PHOSPHATASE,[2],319 u/L
same,ASPARTATE AMINOTRANSFERASE,[2],89.17 u/L
same,BLOOD UREA NITROGEN,[2],15.2 mg/dL
same,CARBON DIOXIDE,[2],24 mmol/L
same,CHLORIDE,[2],104.4 MEQ/L
same,CHOLESTEROL,[2],69.5 mg/dL
same,CREATINE PHOSPHOKINASE,[2],295.83 u/L
same,CREATININE,[2],0.21 mg/dL
same,GLUCOSE,[2],124.33 mg/dL
same,LACTATE DEHYDROGENASE,[2],325.5 u/L
same,LIPASE,[2],14.67 u/L
same,PHOSPHORUS,[2],11.45 mg/dL
same,POTASSIUM,[2],6.74 MEQ/L
same,SODIUM,[2],151.4 MEQ/L
same,TOTAL BILIRUBIN,[2],0.23 mg/dL
same,TOTAL PROTEIN,[2],6.45 G/DL
same,URIC ACID,[2],1.18 mg/dL
same,ABSOLUTE BASOPHIL,[3],0 CELLS/uL
same,ABSOLUTE EOSINOPHIL,[3],137 CELLS/uL
same,ABSOLUTE LYMPHOCYTE,[3],14557.33 CELLS/uL
same,ABSOLUTE MONOCYTE,[3],165.33 CELLS/uL
same,ABSOLUTE SEGMENTED NEUTROPHIL,[3],1673.67 CELLS/uL
same,BASOPHIL,[3],0%
same,EOSINOPHIL,[3],1%
same,ERYTHROCYTE COUNT,[3],5.52 x10E6/uL
same,HEMATOCRIT,[3],34.93%
same,HEMOGLOBIN,[3],13.67 G/DL
same,LEUKOCYTE COUNT,[3],16.53 x10E3/uL
same,LYMPHOCYTE,[3],88.33%
same,MEAN CORPUSCULAR HEMOGLOBIN,[3],24.8 pg
same,MEAN CORPUSCULAR HEMOGLOBIN CONCENTRATION,[3],39.13 G/DL
same,MEAN CORPUSCULAR VOLUME,[3],63.3 fL
same,MONOCYTE,[3],1%
same,NEUTROPHIL,[3],9.67%
same,NUCLEATED RED BLOOD CELLS,[3],0 /100WBC
same,PLATELET COUNT,[3],1282.33 x10E3/uL
same,ALANINE AMINOTRANSFERASE,[3],48 u/L
same,ALBUMIN,[3],4.07 G/DL
same,ALKALINE PHOSPHATASE,[3],265 u/L
same,ASPARTATE AMINOTRANSFERASE,[3],76 u/L
same,BLOOD UREA NITROGEN,[3],13.67 mg/dL
same,CARBON DIOXIDE,[3],25.33 mmol/L
same,CHLORIDE,[3],102 MEQ/L
same,CHOLESTEROL,[3],62.67 mg/dL
same,CREATINE PHOSPHOKINASE,[3],306.33 u/L
same,CREATININE,[3],0.2 mg/dL
same,GLUCOSE,[3],164.67 mg/dL
same,LACTATE DEHYDROGENASE,[3],197.33 u/L
same,LIPASE,[3],10.33 u/L
same,PHOSPHORUS,[3],11.33 mg/dL
same,POTASSIUM,[3],6.26 MEQ/L
same,SODIUM,[3],142.7 MEQ/L
same,TOTAL BILIRUBIN,[3],0.2 mg/dL
same,TOTAL PROTEIN,[3],5.87 G/DL
same,URIC ACID,[3],1.63 mg/dL
same,ABSOLUTE BASOPHIL,[4],0 CELLS/uL
same,ABSOLUTE EOSINOPHIL,[4],47.67 CELLS/uL
same,ABSOLUTE LYMPHOCYTE,[4],14175.67 CELLS/uL
same,ABSOLUTE MONOCYTE,[4],210 CELLS/uL
same,ABSOLUTE SEGMENTED NEUTROPHIL,[4],1533.33 CELLS/uL
same,BASOPHIL,[4],0%
same,EOSINOPHIL,[4],0.33%
same,ERYTHROCYTE COUNT,[4],5.54 x10E6/uL
same,HEMATOCRIT,[4],35.6%
same,HEMOGLOBIN,[4],13.8 G/DL
same,LEUKOCYTE COUNT,[4],15.97 x10E3/uL
same,LYMPHOCYTE,[4],89%
same,MEAN CORPUSCULAR HEMOGLOBIN,[4],24.93 pg
same,MEAN CORPUSCULAR HEMOGLOBIN CONCENTRATION,[4],38.77 G/DL
same,MEAN CORPUSCULAR VOLUME,[4],64.27 fL
same,MONOCYTE,[4],1.33%
same,NEUTROPHIL,[4],9.33%
same,NUCLEATED RED BLOOD CELLS,[4],0 /100WBC
same,PLATELET COUNT,[4],1323 x10E3/uL
same,ALANINE AMINOTRANSFERASE,[4],48.67 u/L
same,ALBUMIN,[4],4.2 G/DL
same,ALKALINE PHOSPHATASE,[4],312 u/L
same,ASPARTATE AMINOTRANSFERASE,[4],76.33 u/L
same,BLOOD UREA NITROGEN,[4],12.67 mg/dL
same,CARBON DIOXIDE,[4],22 mmol/L
same,CHLORIDE,[4],103.67 MEQ/L
same,CHOLESTEROL,[4],67.67 mg/dL
same,CREATINE PHOSPHOKINASE,[4],212 u/L
same,CREATININE,[4],0.17 mg/dL
same,GLUCOSE,[4],187 mg/dL
same,LACTATE DEHYDROGENASE,[4],113 u/L
same,LIPASE,[4],9 u/L
same,PHOSPHORUS,[4],11.2 mg/dL
same,POTASSIUM,[4],6.01 MEQ/L
same,SODIUM,[4],144.6 MEQ/L
same,TOTAL BILIRUBIN,[4],0.17 mg/dL
same,TOTAL PROTEIN,[4],6.07 G/DL
same,URIC ACID,[4],2.13 mg/dL
